Converted amounts (≈) assume the structure as drawn. “And” between values parts separate entries of the source, which are not always exact repeats. Identical values can stand only once. Like-named read-outs stand apart in the source and are kept apart here.
How the values were obtained:
[1] = test system: L929 cells; experiment: MTT cell viability (cytotoxicity) assay on L929 cells; assay type: cell-based, mouse; conditions: L929 cells, 24 h exposure
Experimental: (§1) Cells were trypsinized twice a week, and seeded at density 1 × 10^6 per T25 cell culture flask, and incubated for 24-48 h at 37 °C and 10% CO2 to achieve a confluent monolayer. […] The final concentration of DMSO in compounds dilutions was not higher than 1.00%. […] Dilution of the all compounds 2-22 and drug were freshly prepared before the cells were exposed. […] The MTT assay was used according to international standards: ISO 10993-5:2009(E), Biological evaluation of medical devices, Part 5: Tests for in vitro cytotoxicity. […] Afterward, the culture medium in the plates was replaced by 100 μL of compounds and sulfadiazine suspension and the cells were exposed for 24 h. Then, 1 mg/mL of MTT solution in RPMI 1640 without phenol red was prepared and 50 μL of the solution was added to each well and incubated at 37 °C, 10% CO2 for 2 h. Mitochondrial dehydrogenases of viable cells reduced the yellowish water-soluble MTT to water-insoluble formazan crystals, which were solubilized with dimethyl sulfoxide (DMSO). The cell culture medium was aspirated cautiously, after which 150 μL DMSO was added to each well, the plates were gently mixed, then 25 μL 0.1 M glycine buffer (pH = 10.5) (Sigma) was added. Optical density was read on the ELISA reader (Multiskan EX, Labsystems, Vienna, VA, USA) at 570 nm. The results were expressed as the percentage of viability compared to untreated cells. All experiments were performed in triplicate. Moreover, cells were treated with 4.0-0.03% concentration of DMSO as a compounds solvent (data not shown).

[2] = as above; assay type: cell-based, mouse; conditions: mouse, L929 mouse fibroblast cells, 24 h, % of untreated cells; for viability at 24 h, 62.5 µg/mL: 62.50 µg/mL
Experimental: as §1

[3] = test system: T. gondii RH tachyzoites; experiment: Influence on T. gondii proliferation ([3H]uracil incorporation) in infected Vero cells; assay type: cell-based, Toxoplasma gondii; conditions: for IC50: Toxoplasma gondii, Vero
Experimental: Vero cell line (African green monkey kidney) (ATCC® CCL-81™) were maintained in EMEM (EMEM/10%HIFBS/P/S) (Eagle’s Minimum Essential Medium—ATCC® 30-2003™) culture medium supplemented with 10% HIFBS (Heat-Inactivated (1 h in 56°C) Fetal Bovine Serum—ATCC), 100 U/mL penicillin, 100 μg/mL streptomycin. The cell line was trypsinized (using Trypsin-EDTA Solution, 1X ATCC® 30-2101™) twice a week, and seeded at density 1 × 10^6 per T25 cell culture flask (Falcon), and incubated for 24–48 h at 37 °C and 5 CO2 to achieve a confluent monolayer. The highly virulent RH strain of Toxoplasma gondii, haplogroup I (ATCC® PRA-310™) were maintained as tachyzoites according to the ATCC product sheet, in DMEM (Dulbecco’s Modified Eagle’s Medium—ATCC® 30-2002™) (DMEM/3%HIFBS/P/S—parasite culture medium) under condition 37 °C and 5 CO2 and passage twice per week.
The Vero cells were seeded on 96-well plates (1 × 10^5 cells/100 µL/well) in EMEM/10%HIFBS/P/S. After 24 h of incubation medium was removed and then T. gondii RH tachyzoites were added to the cell monolayers at density 1 × 10^5 cells/100 µL/well in DMEM/3%HIFBS/P/S. One hour later different compounds and sulfadiazine dilutions (100 µL/well) in parasite culture medium were added to the cell monolayers with T. gondii. After subsequent 24 h of incubation 1 µCi/well [5,6-^3H] uracil (Moravek Biochemicals Inc., Brea, CA, USA) was applied to each microculture for further 72 h. The amount of the isotope incorporated into the parasite nucleic acid pool, corresponding to the parasite growth, was measured by liquid scintillation counting using 1450 Microbeta Plus Liquid Scintillation Counter (Wallac Oy, Turku, Finland). The results were expressed as counts per minute (CPM) and transformed to the percentage of viability compared to untreated cells. All experiments were performed in triplicate.

[4] = RH tachyzoites in Vero cells, [3H]uracil incorporation, highest concentration tested 125 µg/mL, read-out: IC50 (50% inhibition of T. gondii proliferation in vitro)

For `CCOc1ccc(NC(=S)NNC(=O)c2[nH]cnc2C)cc1` [Compound 21, 4-(4-Ethoxyphenyl)-1-(4-methylimidazol-5-oyl)thiosemicarbazide], the “CC30 (concentration required for 30% cells proliferation inhibition)” value [1] was 500.00 µg/mL and 500 µg/mL, the viability at 24 h, 3.91 µg/mL [2] was 115% and the viability at 24 h, 7.81 µg/mL [2] was 114%. It also gave a viability at 24 h, 15.63 µg/mL [2] of 112%, a viability at 24 h, 31.25 µg/mL [2] of 106% and a viability at 24 h, 62.5 µg/mL [2] of 101%. For the same compound, the viability at 24 h, 125 µg/mL [2] was 84.3%, the viability at 24 h, 250 µg/mL [2] was 82.3% and the viability at 24 h, 500 µg/mL [2] was 72%. For the same compound, the IC50 [3, 4] was 95.3 µg/mL (≈ 298 µM).

With `Cc1nc[nH]c1C(=O)NNC(=S)Nc1cc(F)ccc1F` [Compound 15, 4-(2,5-Difluorophenyl)-1-(4-methylimidazol-5-oyl)thiosemicarbazide] the “CC30 (concentration required for 30% cells proliferation inhibition)” value [1] was 158.49 µg/mL, the viability at 24 h, 3.91 µg/mL [2] was 105% and the viability at 24 h, 7.81 µg/mL [2] was 102%. It also gave a viability at 24 h, 15.63 µg/mL [2] of 101%, a viability at 24 h, 31.25 µg/mL [2] of 96.2% and a viability at 24 h, 62.5 µg/mL [2] of 84.3%. The viability at 24 h, 125 µg/mL [2] was 74.8%, the viability at 24 h, 250 µg/mL [2] was 65.2% and the viability at 24 h, 500 µg/mL [2] was 51.2%. For the same compound, the “IC50 (50% inhibition of T. gondii proliferation in vitro)” value ([3]; RH tachyzoites in Vero cells, [3H]uracil incorporation, highest concentration tested 125 µg/mL) was 53.70 µg/mL and the IC50 [3, 4] was 53.1 µg/mL (≈ 170 µM).

For `CC(=O)c1cccc(NC(=S)NNC(=O)c2[nH]cnc2C)c1` [Compound 12, 4-(3-Acetylphenyl)-1-(4-methylimidazol-5-oyl)thiosemicarbazide], the “CC30 (concentration required for 30% cells proliferation inhibition)” value [1] was 206.54 µg/mL, the viability at 24 h, 3.91 µg/mL [2] was 106% and the viability at 24 h, 7.81 µg/mL [2] was 104%. For the same compound, the viability at 24 h, 15.63 µg/mL [2] was 103%, the viability at 24 h, 31.25 µg/mL [2] was 101% and the viability at 24 h, 62.5 µg/mL [2] was 99.3%. The viability at 24 h, 125 µg/mL [2] was 96.7%, the viability at 24 h, 250 µg/mL [2] was 76.8% and the viability at 24 h, 500 µg/mL [2] was 56.2%. For the same compound, the IC50 [3, 4] was 95.5 µg/mL (≈ 301 µM).

In the case of `Cc1cccc(NC(=S)NNC(=O)c2[nH]cnc2C)c1` [Compound 17, 1-(4-Methylimidazol-5-oyl)-4-(3-methylphenyl)thiosemicarbazide], the melting point is reported as 193 to 195 °C, the “CC30 (concentration required for 30% cells proliferation inhibition)” value [1] is reported as 50.12 µg/mL and the viability at 24 h, 3.91 µg/mL [2] is reported as 94.1%. The viability at 24 h, 7.81 µg/mL [2] was 88.7%, the viability at 24 h, 15.63 µg/mL [2] was 85.7% and the viability at 24 h, 31.25 µg/mL [2] was 74.8%. For the same compound, the viability at 24 h, 62.5 µg/mL [2] was 64.9%, the viability at 24 h, 125 µg/mL [2] was 56.5% and the viability at 24 h, 250 µg/mL [2] was 50%. The viability at 24 h, 500 µg/mL [2] was 40.7% and the IC50 [3, 4] was 37.1 µg/mL (≈ 128 µM).

In the case of `Cc1ccc(NC(=S)NNC(=O)c2[nH]cnc2C)cc1` [Compound 18], the “CC30 (concentration required for 30% cells proliferation inhibition)” value [1] is reported as 34.67 µg/mL, the viability at 24 h, 3.91 µg/mL [2] is reported as 99.1% and the viability at 24 h, 7.81 µg/mL [2] is reported as 91.7%. For the same compound, the viability at 24 h, 15.63 µg/mL [2] was 82%, the viability at 24 h, 31.25 µg/mL [2] was 69% and the viability at 24 h, 62.5 µg/mL [2] was 64.6%. The viability at 24 h, 125 µg/mL [2] was 63.7%, the viability at 24 h, 250 µg/mL [2] was 60.4% and the viability at 24 h, 500 µg/mL [2] was 53%. For the same compound, the IC50 [3, 4] was ~57.6 µg/mL (≈ 199 µM).

With `Cc1nc[nH]c1C(=O)NNC(=S)NCc1ccccc1` [Compound 8, 4-Benzyl-1-(4-methylimidazol-5-oyl)thiosemicarbazide] the “CC30 (concentration required for 30% cells proliferation inhibition)” value [1] was 123.03 µg/mL, the viability at 24 h, 3.91 µg/mL [2] was 101% and the viability at 24 h, 7.81 µg/mL [2] was 99.4%. The viability at 24 h, 15.63 µg/mL [2] was 96.5%, the viability at 24 h, 31.25 µg/mL [2] was 92% and the viability at 24 h, 62.5 µg/mL [2] was 88.8%. For the same compound, the viability at 24 h, 125 µg/mL [2] was 64.9%, the viability at 24 h, 250 µg/mL [2] was 53.3% and the viability at 24 h, 500 µg/mL [2] was 46.6%. The IC50 ([3]; IC50 greater than 125 µg/mL (highest concentration tested), calculated by extrapolation of the curves (GraphPad Prism), read-out: IC50 (50% inhibition of T. gondii proliferation in vitro), extrapolated) was ~150 µg/mL (≈ 517 µM).

For `COc1ccc(NC(=S)NNC(=O)c2nc[nH]c2C)cc1` [Compound 7], the “CC30 (concentration required for 30% cells proliferation inhibition)” value [1] was 389.05 µg/mL, the viability at 24 h, 3.91 µg/mL [2] was 95.1% and the viability at 24 h, 7.81 µg/mL [2] was 90.3%. The viability at 24 h, 15.63 µg/mL [2] was 89.5%, the viability at 24 h, 31.25 µg/mL [2] was 87.7% and the viability at 24 h, 62.5 µg/mL [2] was 85.8%. For the same compound, the viability at 24 h, 125 µg/mL [2] was 84%, the viability at 24 h, 250 µg/mL [2] was 70.7% and the viability at 24 h, 500 µg/mL [2] was 68.6%. The IC50 [3, 4] was 114 µg/mL (≈ 373 µM).
